Assay results reported in patent US20240299562A1 (priority 2020, published 2024).
Where two headings read alike, the source gives them in different places. Where a SMILES comes first, the peptide text is derived from it.

Legend:
[1] = cited from earlier work
[2] = in dogs; cited from earlier work
[3] = in mice; cited from earlier work
[4] = chronic treatment in rats, doses up to 8-fold higher; cited from earlier work
HME-1 cells = assay: WST-1 cell viability, normal HME-1 cells; format: cell-based, human; conditions: for IC50: HME-1 normal cells, 72 hrs continuous drug exposure, WST-1 (Table 1), read-out: Absolute IC50
Experimental: (§1) All commercial cell lines were purchased at ATCC (LGC Standards SARL, France). Cells were seeded in 96-well plates according to their optimal seeding density, varying between 5.000 and 10.000 cells/well. After attachment overnight, 10-point serial titrations (1:5) were prepared in their equivalent complete media as recommended by ATCC, starting from the 10 mM stock solutions. For doxorubicin comprising prodrugs dilutions started from 100 μM, while for the parent compound doxorubicin dilutions started at 10 μM. […] Seventy-two hours later, compounds were removed together with the supernatants and cells were washed once with PBS to remove excess drugs.
(§2) The WST-1 assay for cell proliferation and viability (Roche, Switzerland) was performed according to manufacturer's protocol. Absorbances were measured at 4 hrs using a Perkin Elmer Ensight multiplate reader, equipped with Kaleido 2.0 software (Perkin Elmer, USA). Cell viability was expressed as a percentage compared to non-treated cells. Absolute IC50 values were extrapolated from a non-linear fitting following the Sigmoidal-4PL regression method using Graphpad Prism 7.0. Likewise, maximal efficacy was determined as 100% minus the cell viability determined when cells are incubated in the presence of a compound. For instance, if 20% of the cells survive incubation in the presence of a compound, then the maximal efficacy of that compound is 100%-20%=80%.
(§3) Selectivity indices (SI) were defined as the ratio of the concentration of drug required to kill 50% of the cells in normal (control, non-cancer) cells, divided by the concentration required to exert the same efficacy in tumor cells: SI=IC50 (control cell)/IC50 (cancer cell), or SI=^HME-1IC50/cancer IC50.

[5] = WST-1 cell viability, normal HME-1 cells; format: cell-based, human; conditions: human; HME-1 normal cells; 72 hrs, WST-1 (Table 2); read-out: Maximal efficacy, cytotoxicity (%) at 100 μM
Experimental: as §1, §2, §3

MDA-MB-468 cells = assay: WST-1 cell viability, MDA-MB-468 triple negative breast cancer cells; format: cell-based
Experimental: as §1, §2, §3

HCT-116 cells = assay: WST-1 cell viability, HCT-116 colorectal cancer cells; format: cell-based
Experimental: as §1, §2, §3

NCI-1299 cells = assay: WST-1 cell viability, NCI-H1299 lung cancer cells; format: cell-based
Experimental: as §1, §2, §3

A-172 cells = assay: WST-1 cell viability, A-172 glioblastoma cells; format: cell-based
Experimental: as §1, §2, §3

LS 174T cells = assay: WST-1 cell viability, LS 174T colorectal cancer cells; format: cell-based
Experimental: as §1, §2, §3

MDA-MB-231 cells = assay: WST-1 cell viability, MDA-MB-231 triple negative breast cancer cells; format: cell-based
Experimental: as §1, §2, §3

A2058 cells = assay: WST-1 cell viability, A2058 melanoma cells; format: cell-based
Experimental: as §1, §2, §3

cancer cell lines = assay: In vitro potency and selectivity across a variety of cancer indications (WST-1); format: cell-based; conditions: 72 hrs
Experimental: as §1
as §2, with “For instance, if 20% of the cells survive incubation in the presence of a compound, then the maximal efficacy of that compound is 100%-20%=80%.” left out

A2780 cells = assay: WST-1 cell viability, A2780 ovarian cancer cells; format: cell-based
Experimental: as §1, §2, §3

U-87 MG cells = assay: WST-1 cell viability, U-87 MG glioblastoma cells; format: cell-based
Experimental: as §1, §2, §3

DU145 cells = assay: WST-1 cell viability, DU145 prostate cancer cells; format: cell-based
Experimental: as §1, §2, §3

MIA PaCa-2 cells = assay: WST-1 cell viability, MIA PaCa-2 pancreatic cancer cells; format: cell-based
Experimental: as §1, §2, §3

A2780 Cp cells = assay: WST-1 cell viability, A2780 CpR (cisplatin resistant) ovarian cancer cells; format: cell-based
Experimental: as §1, §2, §3

NCI-H292 cells = assay: WST-1 cell viability, NCI-H292 lung cancer cells; format: cell-based
Experimental: as §1, §2, §3

[6] = system: U87 MG glioblastoma cells subcutaneously implanted in nude NMRI mice; assay: In vivo activity of PhAc-ALLP-Dox on U87 MG glioblastoma xenograft; set-up: species or system mouse; conditions: 154 mg/kg iv, once per week
Experimental: The in vivo efficacy of PhAc-ALLP-Dox was tested in a mouse GBM model. U87 MG glioblastoma cells were subcutaneously (SC) implanted in nude NMRI mice. In total, 32 adult (9-10 weeks old) nude female NMRI mice (Janvier, France) were subjected to SC tumor cell grafting in the right flank. In total, 5×10^6 U87 MG cells resuspended in PBS plus Matrigel (1:1) were injected in 200 uL final volume. As soon as the tumors were palpable and reached the volume of 200 mm3 the treatment was started. At day zero, mice were randomly divided into 4 groups, based on the tumor volume, in order to have the following experimental sub-cohorts: • control group receiving the vehicle (PBS pH7.2) with a dose of 5 ml/kg, intravenously (iv), once per week (QW); • PhAc-ALLP-Dox (30 mg/kg iv, QW); • PhAc-ALGP-Dox (154 mg/kg iv, QW); • Dox (5 mg/kg iv, QW).
Treatments were performed once per week for a total of four tail vein administrations/injections (on days 1, 7, 14 and 21). One extra week of observation followed the active treatment phase. During the experiment, tumor volume was measured two times a week and was assessed three-dimensionally with a digital caliper (Mitutoyo, Illinois) using the following formula:
V=4/3π×[(d/2)^2×(D/2)], where d is the minor tumor axis and D is the major tumor axis.

COc1cccc2c1C(=O)c1c(O)c3c(c(O)c1C2=O)CC(O)(C(=O)CO)CC3OC1CC(NC(=O)C(CC(C)C)NC(=O)C(C)NC(=O)C(CC(C)C)NC(=O)CCNC(=O)CCC(=O)O)C(O)C(C)O1 [Suc-βALAL-dox, N-succinyl-beta-alanyl-L-leucyl-L-alanyl-L-leucyl-doxorubicin]
Clinical benefit, share of evaluable patients ([1]; phase I clinical study (Delord et al., unpublished)): 59%
Cardiac adverse events ([1]; phase I clinical study, even at very high cumulative doses (2750 mg/m^2)): No drug-related, severe cardiac adverse events were reported
Dose at which myelotoxicity occurred compared with free doxorubicin ([1]; phase I clinical study): three times higher doses
Times less toxic compared with unconjugated doxorubicin [2]: 3 times
Times less toxic compared with unconjugated doxorubicin [3]: about 5 times
Cardiotoxicity compared with Dox [4]: significantly less cardiotoxic

COc1cccc2c1C(=O)c1c(O)c3c(c(O)c1C2=O)C[C@@](O)(C(=O)CO)C[C@@H]3O[C@H]1C[C@H](NC(=O)[C@@H]2CCCN2C(=O)[C@H](CCCCN)NC(=O)[C@@H]2CCCN2C(=O)[C@H](C)NC(=O)CP(=O)(O)O)[C@H](O)[C@H](C)O1 [PhAc-APKP-Dox] (HELM PEPTIDE1{[O=C(CP(=O)(O)O)[*:2]].A.P.K.P.[COc1cccc2c1C(=O)c1c(O)c3c(c(O)c1C2=O)C[C@@](O)(C(=O)CO)C[C@@H]3O[C@H]1C[C@H](N[*:1])[C@H](O)[C@H](C)O1]}$$$$V2.0)
SI = HME-1 IC50/cancer IC50 (HME-1 cells; HME-1 normal cells against themselves (Table 3)): 1.00
IC50 (HME-1 cells): 18.1 µM
cytotoxicity at 72 h, 100 µM [5]: 81.5%
SI = HME-1 IC50/cancer IC50 (MDA-MB-468 cells; MDA-MB-468 (TNBC) vs HME-1 (Table 3)): 4.02
IC50 (MDA-MB-468 cells; MDA-MB-468 (TNBC), 72 hrs, WST-1 (Table 1), read-out: Absolute IC50): 4.49 µM
Maximal efficacy, cytotoxicity (%) at 100 μM (MDA-MB-468 cells; MDA-MB-468 (TNBC), 72 hrs, WST-1 (Table 2)): 91.83%
SI = HME-1 IC50/cancer IC50 (HCT-116 cells; HCT-116 (CrC) vs HME-1 (Table 3)): 1.47
IC50 (HCT-116 cells; HCT-116 (CrC), 72 hrs, WST-1 (Table 1), read-out: Absolute IC50): 12.3 µM
Maximal efficacy, cytotoxicity (%) at 100 μM (HCT-116 cells; HCT-116 (CrC), 72 hrs, WST-1 (Table 2)): 81.05%
SI = HME-1 IC50/cancer IC50 (NCI-1299 cells; NCI-1299 (NSCLC) vs HME-1 (Table 3)): 1.72
IC50 (NCI-1299 cells; NCI-1299 (NSCLC), 72 hrs, WST-1 (Table 1), read-out: Absolute IC50): 10.5 µM
Maximal efficacy, cytotoxicity (%) at 100 μM (NCI-1299 cells; NCI-1299 (NSCLC), 72 hrs, WST-1 (Table 2)): 75.52%
SI = HME-1 IC50/cancer IC50 (A-172 cells; A-172 (GBM) vs HME-1 (Table 3)): 0.49
IC50 (A-172 cells; A-172 (GBM), 72 hrs, WST-1 (Table 1), read-out: Absolute IC50): 36.9 µM
Maximal efficacy, cytotoxicity (%) at 100 μM (A-172 cells; A-172 (GBM), 72 hrs, WST-1 (Table 2)): 91.93%
SI = HME-1 IC50/cancer IC50 (LS 174T cells; LS 174T (CrC) vs HME-1 (Table 3)): 1.23
IC50 (LS 174T cells; LS 174T (CrC), 72 hrs, WST-1 (Table 1), read-out: Absolute IC50): 14.7 µM
Maximal efficacy, cytotoxicity (%) at 100 μM (LS 174T cells; LS 174T (CrC), 72 hrs, WST-1 (Table 2)): 53.72%
SI = HME-1 IC50/cancer IC50 (MDA-MB-231 cells; MDA-MB-231 (TNBC) vs HME-1 (Table 3)): 8.49
IC50 (MDA-MB-231 cells; MDA-MB-231 (TNBC), 72 hrs, WST-1 (Table 1), read-out: Absolute IC50): 2.13 µM
Maximal efficacy, cytotoxicity (%) at 100 μM (MDA-MB-231 cells; MDA-MB-231 (TNBC), 72 hrs, WST-1 (Table 2)): 89.12%
SI = HME-1 IC50/cancer IC50 (A2058 cells; A2058 (Melanoma) vs HME-1 (Table 3)): 3.69
IC50 (A2058 cells; A2058 (Melanoma), 72 hrs, WST-1 (Table 1), read-out: Absolute IC50): 4.9 µM
Maximal efficacy, cytotoxicity (%) at 100 μM (A2058 cells; A2058 (Melanoma), 72 hrs, WST-1 (Table 2)): 96.27%
Potency range against cancer cells (cancer cell lines): within the micromolar range
SI = HME-1 IC50/cancer IC50 (A2780 cells; A2780 (OvC) vs HME-1 (Table 3)): 21.13
IC50 (A2780 cells; A2780 (OvC), 72 hrs, WST-1 (Table 1), read-out: Absolute IC50): 0.86 µM
Maximal efficacy, cytotoxicity (%) at 100 μM (A2780 cells; A2780 (OvC), 72 hrs, WST-1 (Table 2)): 87.34%
SI = HME-1 IC50/cancer IC50 (U-87 MG cells; U-87 MG (GBM) vs HME-1 (Table 3)): 1.46
IC50 (U-87 MG cells; U-87 MG (GBM), 72 hrs, WST-1 (Table 1), read-out: Absolute IC50): 12.4 µM
Maximal efficacy, cytotoxicity (%) at 100 μM (U-87 MG cells; U-87 MG (GBM), 72 hrs, WST-1 (Table 2)): 88.38%
SI = HME-1 IC50/cancer IC50 (DU145 cells; DU145 (PrC) vs HME-1 (Table 3)): 2.02
IC50 (DU145 cells; DU145 (PrC), 72 hrs, WST-1 (Table 1), read-out: Absolute IC50): 8.93 µM
Maximal efficacy, cytotoxicity (%) at 100 μM (DU145 cells; DU145 (PrC), 72 hrs, WST-1 (Table 2)): 91.93%
SI = HME-1 IC50/cancer IC50 (MIA PaCa-2 cells; MIA PaCa-2 (PaC) vs HME-1 (Table 3)): 0.40
IC50 (MIA PaCa-2 cells; MIA PaCa-2 (PaC), 72 hrs, WST-1 (Table 1), read-out: Absolute IC50): 45.7 µM
Maximal efficacy, cytotoxicity (%) at 100 μM (MIA PaCa-2 cells; MIA PaCa-2 (PaC), 72 hrs, WST-1 (Table 2)): 77.65%
SI = HME-1 IC50/cancer IC50 (A2780 Cp cells; A2780 Cp (OvC) vs HME-1 (Table 3)): 1.62
Maximal efficacy, cytotoxicity (%) at 100 μM (A2780 Cp cells; A2780 Cp (OvC), 72 hrs, WST-1 (Table 2)): 74.61%
IC50 (A2780 Cp cells; A2780 Cp (OvC, cisplatin resistant), 72 hrs, WST-1 (Table 1), read-out: Absolute IC50): 11.2 µM
SI = HME-1 IC50/cancer IC50 (NCI-H292 cells; NCI-H292 (NSCLC) vs HME-1 (Table 3)): 0.70
IC50 (NCI-H292 cells; NCI-H292 (NSCLC), 72 hrs, WST-1 (Table 1), read-out: Absolute IC50): 25.9 µM
Maximal efficacy, cytotoxicity (%) at 100 μM (NCI-H292 cells; NCI-H292 (NSCLC), 72 hrs, WST-1 (Table 2)): 63.26%

COc1cccc2c1C(=O)c1c(O)c3c(c(O)c1C2=O)C[C@@](O)(C(=O)CO)C[C@@H]3O[C@H]1C[C@H](NC(=O)[C@@H]2CCCN2C(=O)CNC(=O)[C@H](CC(C)C)NC(=O)[C@H](C)NC(=O)CP(=O)(O)O)[C@H](O)[C@H](C)O1 [PhAc-ALGP-Dox, reference compound] (HELM PEPTIDE1{[O=C(CP(=O)(O)O)[*:2]].A.L.G.P.[COc1cccc2c1C(=O)c1c(O)c3c(c(O)c1C2=O)C[C@@](O)(C(=O)CO)C[C@@H]3O[C@H]1C[C@H](N[*:1])[C@H](O)[C@H](C)O1]}$$$$V2.0)
IC50 (HME-1 cells): > 100 µM
cytotoxicity at 72 h, 100 µM [5]: 31.2%
Tumor growth [6]: significantly reduced tumor growth
